What was measured:
[1] = system: U-2 OS; assay: cell painting activity score (Mahalanobis distance from DMSO wells); higher = stronger morphological phenotype; settings: 24 h
Protocol: (§1)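 Cell painting in U-2 OS cells (384-well, about 1,500 cells per well), compound exposure 24 h, usually six 2-fold concentrations from 20 to 0.625 uM (some compounds higher or lower). Relative cell count is the cell number per well relative to DMSO wells. Activity score is the Mahalanobis distance of the morphological profile from DMSO control wells. Mean of four technical replicate plates.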

[2] = system: U-2 OS; assay: relative cell count vs DMSO (cell painting) (fraction of DMSO control); higher = more cells remaining (less cytotoxic); settings: 24 h
Protocol: as §1

[3] = system: U-2 OS; assay: AUC of culture confluence over time (live-cell imaging) (AUC (confluence % x time)); higher = more confluent culture (less growth inhibition)
Protocol: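 Live-cell Incucyte imaging of U-2 OS cells in F-12K medium. Compounds were tested mostly at 5, 10 and 20 uM, and cells were imaged every 4 h for up to 60 h. Value is the area under the curve of phase-contrast confluence over time.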

| Compound | cell painting activity score ([1]; 0.625 µM) | cell painting activity score ([1]; 1.25 µM) | cell painting activity score ([1]; 2.5 µM) | cell painting activity score ([1]; 5 µM) | cell painting activity score ([1]; 10 µM) | cell painting activity score ([1]; 20 µM) | relative cell count ([2]; 0.625 µM) | relative cell count ([2]; 1.25 µM) | relative cell count ([2]; 2.5 µM) | relative cell count ([2]; 5 µM) | relative cell count ([2]; 10 µM) | relative cell count ([2]; 20 µM) | AUC of culture confluence over time ([3]; 5 µM) | AUC of culture confluence over time ([3]; 10 µM) | AUC of culture confluence over time ([3]; 20 µM) |
| --- | --- | --- | --- | --- | --- | --- | --- | --- | --- | --- | --- | --- | --- | --- | --- |
| CCC(=O)CCCCC[C@@H]1NC(=O)[C@H]2CCCCN2C(=O)[C@H]([C@@H](C)CC)NC(=O)[C@H](Cc2cn(OC)c3ccccc23)NC1=O | 16.3 | 16 | 16.4 | 16 | 13.2 | 13.1 | 0.946 | 0.821 | 0.617 | 0.59 | 0.617 | 0.553 | 22.3 | 21.7 | 19.6 |
| Cc1ccc(C(=O)N(CCCN)[C@@H](c2oc3cc(Cl)ccc3c(=O)c2Cc2ccccc2)C(C)C)cc1.Cl | 13.7 | 13 | 14 | 13.6 | 25.2 | 22 | 0.217 | 0.248 | 0.234 | 0.222 | 0.0425 | 0.029 | 20.2 | 15.1 | 11.9 |
| C[C@@H]1O[C@@H](O[C@H]2[C@H](O[C@H]3CC[C@@]4(C)[C@@H](CC[C@]5(C)[C@@H]4CC=C4[C@@H]6CC(C)(C)CC[C@]6(C(=O)O[C@@H]6O[C@H](CO[C@@H]7O[C@H](CO)[C@@H](O[C@@H]8O[C@@H](C)[C@H](O)[C@@H](O)[C@H]8O)[C@H](O)[C@H]7O)[C@@H](O)[C@H](O)[C@H]6O)CC[C@]45C)[C@]3(C)CO)OC[C@H](O)[C@@H]2O)[C@H](O)[C@H](O)[C@H]1O | 3.46 | 5.62 | 3.28 | 3.16 | 3.23 | 2.9 | 0.985 | 0.966 | 0.955 | 1 | 1.01 | 1.04 | 45.1 | 48.4 | 45.2 |
| O=c1c(O)c(-c2ccc(O)c(O)c2)oc2cc(O)ccc12 | 5.44 | 5.04 | 4.93 | 4.23 | 4.83 | 7.46 | 0.969 | 0.938 | 0.943 | 0.939 | 0.932 | 0.945 | 52.8 | 52 | 47.7 |
| CC(C)(N=NC(C)(C)C(=N)N)C(=N)N.Cl.Cl | 5.15 | 4.98 | 5.89 | 7.2 | 8.42 | 9.74 | 1.01 | 0.966 | 0.949 | 1.01 | 0.975 | 0.977 | 49.5 | 48.3 | 46.6 |
| O=c1c2ccccc2[se]n1-c1ccccc1 | 4.12 | 5.85 | 11.4 | 12.8 | 12.8 | 18 | 0.989 | 0.995 | 0.973 | 0.98 | 0.521 | 0.312 | 49.5 | 33.9 | 22.3 |
| Cc1nc(Nc2ncc(C(=O)Nc3c(C)cccc3Cl)s2)cc(N2CCN(CCO)CC2)n1 | 11.4 | 12.6 | 12.3 | 12.2 | 13.1 | 12.8 | 0.973 | 0.883 | 0.89 | 0.894 | 0.806 | 0.839 | 32.5 | 29 | 22.6 |
| Oc1ccc2ccccc2c1SSc1c(O)ccc2ccccc12 | 5.34 | 4.94 | 7.79 | 8.22 | 9.14 | 14 | 0.996 | 0.924 | 0.926 | 0.901 | 0.812 | 0.245 | 44.4 | 37.5 | 18 |
| CN(N=O)C(=O)N[C@@H]1[C@@H](O)[C@H](O)[C@@H](CO)O[C@@H]1O | 12.4 | 14.8 | 14.4 | 13.9 | 10.4 | 10.8 | 1.04 | 0.929 | 0.893 | 0.893 | 0.88 | 0.851 | 48.1 | 46.7 | 48.1 |
| CCc1c2c(nc3ccc(OC(=O)N4CCC(N5CCCCC5)CC4)cc13)-c1cc3c(c(=O)n1C2)COC(=O)[C@]3(O)CC.Cl | 7.03 | 8.8 | 9.65 | 10.7 | 11 | 11.2 | 0.924 | 0.783 | 0.705 | 0.614 | 0.554 | 0.566 | 31.5 | 25.7 | 22 |
